Test results reported in paper PMC7817009, “Structural analysis of rice Os4BGlu18 monolignol β-glucosidase” (PLoS ONE, 2021).

Target: T1, Os4BGlu18 (Oryza sativa, UniProt Q7XSK0)
T1 construct: gene BGLU18; mature protein without predicted signal peptide (1-26); N-terminal thioredoxin-His6 tag cut with enterokinase, a few tag residues remain; residues 27-500 seen, last five (LHENQ) disordered
Assay: X-ray crystallography of soaked crystal, […] Å
Conditions: crystals soaked in 1 mM for 20 min, MES pH 6.0; glycone-binding active site (subsite -1)

T1 sequence (Q7XSK0 27-505): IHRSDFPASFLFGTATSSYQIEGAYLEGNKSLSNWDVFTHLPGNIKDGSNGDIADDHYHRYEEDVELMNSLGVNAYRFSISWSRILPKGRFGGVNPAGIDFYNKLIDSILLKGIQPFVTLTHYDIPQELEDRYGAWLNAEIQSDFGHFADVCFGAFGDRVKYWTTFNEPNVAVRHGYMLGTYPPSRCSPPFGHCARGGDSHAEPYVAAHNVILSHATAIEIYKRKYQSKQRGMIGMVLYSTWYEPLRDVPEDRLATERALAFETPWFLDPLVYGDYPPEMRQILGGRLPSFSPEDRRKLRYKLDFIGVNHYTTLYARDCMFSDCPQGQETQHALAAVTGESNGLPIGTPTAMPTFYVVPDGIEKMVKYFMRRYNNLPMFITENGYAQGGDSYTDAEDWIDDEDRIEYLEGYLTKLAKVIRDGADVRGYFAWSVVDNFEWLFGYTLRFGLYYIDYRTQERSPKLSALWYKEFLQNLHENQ

## O=C1O[C@H](CO)[C@@H](O)[C@H](O)[C@H]1O [DG, δ-gluconolactone]
  X-ray crystallography of soaked crystal, 2.1 Å: could be observed in the active site pocket
